Measured values from US6395738B1, “Benzofuran derivatives” (Kyowa Hakko Kogyo Co., Ltd., priority 1997, dated 2002).
Counter-ions that a name gives are not always drawn. Blank lines part the entries; values can stand above or below the compound they belong to.

Experiments:
[1] = molecular target: T1, Recombinant Human PDE IV Enzyme (HSPDE4A) (Homo sapiens, UniProt P27815); test: Inhibition test on recombinant human PDE IV enzyme; type: biochemical; conditions: [3H]cAMP substrate
T1 construct: except that 223 amino acids have been deleted from the N-terminal thereof; made in house; host or cells: E. coli
Procedure: Inhibition Test on Recombinant Human PDE IV Enzyme
Human phosphodiesterase cDNA (HSPDE4A) was isolated from testicles. Its predicted amino acid sequence is identical with the sequence (HSPDE4A5) reported by Bolger, G. et al. (Mol. Cell. Biol., 6558 (1993)) except that 223 amino acids have been deleted from the N-terminal thereof. This recombinant protein was expressed by an E. coli expression plasmid and then purified. The PDE activity was measured in the following 2-step process according to the method of Kincaid, R. and Manganiello, V. [Method. Enzymol., 159, 457 (1988)]. The substrate used was [^3H]cAMP (final concentration: […]), and the reaction was performed in a standard mixture containing N,N-bis(2-hydroxyethyl)-2-aminoethanesulfonic acid (50 mmol/l, pH 7.2), MgCl2 (1 mmol/l) and soybean trypsin inhibitor (0.1 mg/ml). The reaction was initiated by adding the enzyme thereto, and the mixture was incubated at 30° C. for 10 to 30 minutes. The reaction was quenched by hydrochloric acid, and the formed 5′-AMP was completely decomposed with […]. This sample was subjected to chromatography on DEAE-Sephadex A-25, and the eluted [^3H]adenosine was counted with a scintillation counter. The test compound was added after dissolved (concentration: 1.7%) in DMSO.

TNF α = test: Inhibitory activity on production of TNF α in mouse model with LPS-induced sepsis; type: in vivo, BALB/c male mice; conditions: for Ratio of inhibition (%) of TNF α production: Dose (mg) 30, orally administered 90 minutes before LPS i.v., serum TNF α by ELISA 1 hour after LPS
Male Sunkus murinus = test: Vomiting test on male Sunkus; type: in vivo
Procedure: Vomiting Test on Male Sunkus
Male Sunkus murinus weighing about 60 g, 5 to 15 animals/group, were used in the test According to the method of Matsuki et al. (Japan J. Pharmacol., 48, 303 (1988)), each Sunkus animal was isolated and left in a wire-netting cage (15 cm width×21 cm length×15 cm height). Each test compound was suspended in physiological saline containing 0.5% Tween 80 and then intraperitoneally (i.p.) administered into each animal in a dose of 10 μl/g. […] The results were expressed in the number of animals with vomiting/the number of tested animals in the group given the test compound.
Compounds P and Q were used as the comparative compounds.

[2] = concentration of test compound 10^−7 mol/L
[3] = concentration of test compound 10^−8 mol/L

T1 sequence (P27815 224-886 limits assumed): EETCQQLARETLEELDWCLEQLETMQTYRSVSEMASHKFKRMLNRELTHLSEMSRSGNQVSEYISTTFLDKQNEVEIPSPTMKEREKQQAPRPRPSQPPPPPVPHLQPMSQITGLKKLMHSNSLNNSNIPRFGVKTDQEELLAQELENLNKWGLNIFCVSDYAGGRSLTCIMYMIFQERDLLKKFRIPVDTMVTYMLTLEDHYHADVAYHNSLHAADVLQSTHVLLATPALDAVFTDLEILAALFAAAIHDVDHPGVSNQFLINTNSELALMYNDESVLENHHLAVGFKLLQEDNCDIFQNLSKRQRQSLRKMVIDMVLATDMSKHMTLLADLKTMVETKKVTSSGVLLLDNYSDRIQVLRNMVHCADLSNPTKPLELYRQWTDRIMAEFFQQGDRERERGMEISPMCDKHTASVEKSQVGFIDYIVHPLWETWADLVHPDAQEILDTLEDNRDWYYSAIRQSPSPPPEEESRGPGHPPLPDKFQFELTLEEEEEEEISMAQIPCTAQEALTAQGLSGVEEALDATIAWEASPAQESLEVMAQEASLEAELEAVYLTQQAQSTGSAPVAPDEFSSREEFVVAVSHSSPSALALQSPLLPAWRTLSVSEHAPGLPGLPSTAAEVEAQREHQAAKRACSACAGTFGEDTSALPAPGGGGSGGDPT

SMILES: COc1ccc(CCc2c(Cl)cncc2Cl)c2cc(C(=O)N3CCN(C)CC3)oc12.O=C(O)/C=C/C(=O)O
melting point: 186 to 187 °C

SMILES: COc1ccc(CCc2c(Cl)cncc2Cl)c2cc(C(=O)N3CCN(CCO)CC3)oc12.O=C(O)/C=C/C(=O)O
melting point: 184 to 185 °C

SMILES: CCN1CCN(C(=O)c2cc3c(C(=O)Nc4c(Cl)cncc4Cl)ccc(OC)c3o2)CC1.O=C(O)/C=C/C(=O)O [Compound 3, 4-(3,5-Dichloro-4-pyridyl)carbamoyl-2-(4-ethyl-1-piperazinyl)carbonyl-7-methoxybenzofuran monofumarate]
melting point: 202 to 204 °C | Ratio of inhibition (%) [1, 2]: 71% | Ratio of inhibition (%) [1, 3]: 20% | Ratio of inhibition (%) of TNF α production (TNF α): 50%

SMILES: COC(=O)c1ccc(C(=O)Nc2c(Cl)cncc2Cl)c2cc(N3CCN(C(C)CO)CC3)oc12 (stereo not drawn) [Compound 4, 4-(3,5-Dichloro-4-pyridyl)carbamoyl-2-[4-(1-hydroxy-2-propyl)-1-piperazinyl]-7-methoxycarbonylbenzofuran]
melting point: 148 to 150 °C | Ratio of inhibition (%) [1, 2]: 85% | Ratio of inhibition (%) [1, 3]: 28%

SMILES: CCC(CO)N1CCN(C(=O)c2cc3c(C(=O)Nc4c(Cl)cncc4Cl)ccc(OC)c3o2)CC1 (stereo not drawn) [Compound 5, 4-(3,5-Dichloro-4-pyridyl)carbamoyl-2-[4-(1-hydroxy-2-butyl)-1-piperazinyl]carbonyl-7-methoxybenzofuran]
melting point: 192 to 194 °C | Ratio of inhibition (%) [1, 2]: 89% | Ratio of inhibition (%) [1, 3]: 41% | Ratio of inhibition (%) of TNF α production (TNF α): 53%

SMILES: COc1ccc(C(=O)Nc2c(Cl)cncc2Cl)c2cc(C(=O)N3CCN(CCCO)CC3)oc12 [Compound 6, 4-(3,5-Dichloro-4-pyridyl)carbamoyl-2-(4-hydroxypropyl-1-piperazinyl)carbonyl-7-methoxybenzofuran]
melting point: 180 to 182 °C | Ratio of inhibition (%) [1, 2]: 81% | Ratio of inhibition (%) [1, 3]: 24% | Ratio of inhibition (%) of TNF α production (TNF α): 33%

SMILES: COc1ccc(C(=O)Nc2c(Cl)cncc2Cl)c2cc(C(=O)N3CCN(CCCCO)CC3)oc12 [Compound 7, 4-(3,5-Dichloro-4-pyridyl)carbamoyl-2-(4-hydroxybutyl-1-piperazinyl)carbonyl-7-methoxybenzofuran]
Ratio of inhibition (%) [1, 2]: 83% | Ratio of inhibition (%) [1, 3]: 35%

SMILES: COc1ccc(C(=O)Nc2c(Cl)cncc2Cl)c2cc(C(=O)N3CCN(CCOCCO)CC3)oc12 [Compound 9, 4-(3,5-Dichloro-4-pyridyl)carbamoyl-2-{4-[2-(2-hydroxyethoxy)ethyl]-1-piperazinyl}carbonyl-7-methoxybenzofuran]
melting point: 132 to 133 °C | Ratio of inhibition (%) [1, 2]: 78% | Ratio of inhibition (%) [1, 3]: 29%

SMILES: COc1ccc(C(=O)Nc2c(Cl)cncc2Cl)c2cc(C(=O)N3CC(C)N(C)C(C)C3)oc12 (stereo not drawn) [Compound 10, 4-(3,5-Dichloro-4-pyridyl)carbamoyl-7-methoxy-2-(3,4,5-trimethyl-1-piperazinyl)carbonylbenzofuran]
melting point: 234 to 236 °C | Ratio of inhibition (%) [1, 2]: 75% | Ratio of inhibition (%) [1, 3]: 9% | Ratio of inhibition (%) of TNF α production (TNF α): 46%

SMILES: COc1ccc(C(=O)Nc2c(Cl)cncc2Cl)c2cc(C(=O)N3CC(C)N(CCO)C(C)C3)oc12 (stereo not drawn) [Compound 11, 4-(3,5-Dichloro-4-pyridyl)carbamoyl-2-(3,5-dimethyl-4-hydroxyethyl-7-methoxy-1-piperazinyl)carbonylbenzofuran]
Ratio of inhibition (%) [1, 2]: 88% | Ratio of inhibition (%) [1, 3]: 48%

SMILES: COc1ccc(C(=O)Nc2c(Cl)cncc2Cl)c2cc(C(=O)N3CCNCC3)oc12 [Compound 12, 4-(3,5-Dichloro-4-pyridyl)carbamoyl-7-methoxy-2-(1-piperazinyl)carbonylbenzofuran]
Ratio of inhibition (%) of TNF α production (TNF α): 27%

SMILES: COc1ccc(C(=O)Cc2c(Cl)cncc2Cl)c2cc(C(=O)N3CCNCC3)oc12.Cl [Compound 24, 4-[2-(3,5-Dichloro-4-pyridyl)-1-oxoethyl]-2-(1-piperazinyl)carbonyl-7-methoxybenzofuran Monohydrochloride]
Ratio of inhibition (%) of TNF α production (TNF α): 47%

SMILES: COc1ccc(C(=O)Cc2ccncc2)c2c1OC1(CCCC1)C2 [Compound P, 7-methoxy-4-[1-oxo-2-(4-pyridyl)ethyl]-spiro[2,3-dihydrobenzofuran-2,1′-cyclopentane].hydrochloride, reference compound]
Number of animals with vomiting/Number of tested animals (Male Sunkus murinus; Dose (mg) 10, intraperitoneal, observed for 1 hour): 5/5 | vomiting as a side effect (in words) (Male Sunkus murinus; summary of Table 4): caused vomiting | Ratio of inhibition (%) of TNF α production (TNF α): 81% | inhibitory activity on production of TNF α (in words) (TNF α; summary of Table 3): high inhibitory activity

More lines, main results first:

melting point: 196 to 198 °C
SMILES: CCN1CCN(c2cc3c(C(=O)Cc4c(Cl)cncc4Cl)ccc(C(=O)OC)c3o2)CC1.O=C(O)/C=C/C(=O)O [Compound 15, 4-[2-(3,5-Dichloro-4-pyridyl)-1-oxoethyl]-2-(4-ethyl-1-piperazinyl)-7-methoxycarbonylbenzofuran Monofumarate]
Ratio of inhibition (%) of TNF α production (TNF α): 61%

melting point: 195 to 196 °C
SMILES: COc1ccc(C(=O)Cc2c(Cl)cncc2Cl)c2cc(C(=O)N3CCN(C(C)C)CC3)oc12.O=C(O)/C=C/C(=O)O [Compound 16, 4-[2-(3,5-Dichloro-4-pyridyl)-1-oxoethyl]-2-(4-isopropyl-1-piperazinyl)carbonyl-7-methoxybenzofuran Monofumarate]
Ratio of inhibition (%) of TNF α production (TNF α): 67%

melting point: 184 to 185 °C
SMILES: CCOCCN1CCN(C(=O)c2cc3c(C(=O)Cc4c(Cl)cncc4Cl)ccc(OC)c3o2)CC1.O=C(O)/C=C/C(=O)O [Compound 17, 4-[2-(3,5-Dichloro-4-pyridyl)-1-oxoethyl]-2-(4-ethoxyethyl-1-piperazinyl)carbonyl-7-methoxybenzofuran Monofumarate]
Ratio of inhibition (%) of TNF α production (TNF α): 62%

melting point: 187 to 189 °C
SMILES: COc1ccc(C(=O)Cc2c(Cl)cncc2Cl)c2cc(C(=O)N3CCN(C(C)CO)CC3)oc12 (stereo not drawn) [Compound 18, 4-[2-(3,5-Dichloro-4-pyridyl)-1-oxoethyl]-2-[4-(1-hydroxy-2-propyl)-1-piperazinyl]carbonyl-7-methoxybenzofuran]
Ratio of inhibition (%) of TNF α production (TNF α): 66%

melting point: 150 to 152 °C
SMILES: CCC(CO)N1CCN(C(=O)c2cc3c(C(=O)Cc4c(Cl)cncc4Cl)ccc(OC)c3o2)CC1 (stereo not drawn) [Compound 19, 4-[2-(3,5-Dichloro-4-pyridyl)-1-oxoethyl]-2-[4-(1-hydroxy-2-butyl)-1-piperazinyl]carbonyl-7-methoxybenzofuran]
Ratio of inhibition (%) of TNF α production (TNF α): 68%

melting point: 162 to 163 °C
SMILES: COc1ccc(C(=O)Cc2c(Cl)cncc2Cl)c2cc(C(=O)N3CCN(CCCO)CC3)oc12 [Compound 20, 4-[2-(3,5-Dichloro-4-pyridyl)-1-oxoethyl]-2-[4-(3-hydroxypropyl)-1-piperazinyl]carbonyl-7-methoxybenzofuran]
Ratio of inhibition (%) of TNF α production (TNF α): 40%

melting point: 120 to 121 °C
SMILES: COc1ccc(C(=O)Cc2c(Cl)cncc2Cl)c2cc(C(=O)N3CCN(CCCCO)CC3)oc12 [Compound 21, 4-[2-(3,5-Dichloro-4-pyridyl)-1-oxoethyl]-2-[4-(4-hydroxybutyl)-1-piperazinyl]carbonyl-7-methoxybenzofuran]
Ratio of inhibition (%) of TNF α production (TNF α): 28%

melting point: 213 to 215 °C
SMILES: COc1ccc(C(=O)Cc2c(Cl)cncc2Cl)c2cc(C(=O)N3CCN(C(CO)CO)CC3)oc12 [Compound 22, 4-[2-(3,5-Dichloro-4-pyridyl)-1-oxoethyl]-2-[4-(1,3-dihydroxy-2-propyl)-1-piperazinyl]carbonyl-7-methoxybenzofuran]
Ratio of inhibition (%) of TNF α production (TNF α): 52%

melting point: 132 to 133 °C
SMILES: COc1ccc(C(=O)Cc2c(Cl)cncc2Cl)c2cc(C(=O)N3CCN(CCOCCO)CC3)oc12 [Compound 23, 4-[2-(3,5-Dichloro-4-pyridyl)-1-oxoethyl]-2-{4-[2-(2-hydroxyethoxy)ethyl]-1-piperazinyl}carbonyl-7-methoxybenzofuran]

melting point: 173 to 174 °C
SMILES: COc1ccc(C(=O)Cc2c(Cl)cncc2Cl)c2cc(C(=O)N3CC(C)N(C)C(C)C3)oc12 (stereo not drawn) [Compound 25, 4-[2-(3,5-Dichloro-4-pyridyl)-1-oxoethyl]-7-methoxy-2-(3,4,5-trimethyl-1-piperazinyl)carbonylbenzofuran]
Ratio of inhibition (%) of TNF α production (TNF α): 53%

melting point: 187 to 188 °C
SMILES: COc1ccc(C(=O)Cc2c(Cl)cncc2Cl)c2cc(C(=O)N3CC(C)N(CCO)C(C)C3)oc12 (stereo not drawn) [Compound 26, 4-[2-(3,5-Dichloro-4-pyridyl)-1-oxoethyl]-2-(3,5-dimethyl-4-hydroxyethyl-1-piperazinyl)carbonyl-7-methoxybenzofuran]
